{"source": "patent US20140357655A1", "about": "“SPIROINDOLINE DERIVATIVES AS GONADOTROPIN- RELEASING HORMONE RECEPTOR ANTAGONISTS” (Bayer Intellectual Property GmbH, priority 2012, published 2014)"}
{"molecular_target": "T1, human GnRH receptor (Homo sapiens, UniProt P30968)", "T1 sequence (P30968 1-328)": "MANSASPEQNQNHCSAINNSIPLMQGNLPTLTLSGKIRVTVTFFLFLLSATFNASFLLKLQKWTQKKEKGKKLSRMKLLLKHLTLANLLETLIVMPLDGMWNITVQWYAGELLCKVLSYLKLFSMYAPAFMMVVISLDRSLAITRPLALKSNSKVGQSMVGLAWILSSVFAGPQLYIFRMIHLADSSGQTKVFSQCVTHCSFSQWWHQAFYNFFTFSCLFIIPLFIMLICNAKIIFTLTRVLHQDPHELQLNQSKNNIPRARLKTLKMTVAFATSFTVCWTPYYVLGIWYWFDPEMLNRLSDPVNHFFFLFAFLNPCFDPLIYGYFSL", "assay": "IP-One HTRF assay with buserelin (at EC80) stimulation", "format": "cell-based", "details": "CHO cells stably expressing human GnRH receptor, read-out: Potency in IP-One HTRF assay, given as IC50", "method_in_brief": "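CHO cells stably expressing human GnRH receptor, preincubated 1 h at 37° C with IP1-d2, were exposed to compound and buserelin at EC80 for 1 h at 37° C. After lysis with Tb-anti-IP1 antibody (1 h, 22° C), 665/620 nm HTRF ratio read; 10 concentrations, 20 μM–1 nM, duplicates, 4-parameter IC50.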", "units": {"IC50": "nM"}}
{"smiles": "COc1cccc(S(=O)(=O)N2c3ccc(C(=O)NCc4ccccc4Cl)cc3C3(CCS(=O)(=O)CC3)C2C2CC2)c1", "note": "(single isomer, unassigned) [Example 44.2, N-(2-chlorobenzyl)-2-cyclopropyl-1-[(3-methoxyphenyl)sulfonyl]-1,2,2′,3′,5′,6′-hexahydrospiro[indole-3,4′-thiopyran]-5-carboxamide 1′,1′-dioxide]", "IC50": 302}
{"smiles": "COc1cccc(S(=O)(=O)N2c3ccc(C(=O)NCc4ncccc4C)cc3C3(CCS(=O)(=O)CC3)C2C2CC2)c1", "note": "(single isomer, unassigned) [Example 45.1, 2-cyclopropyl-1-[(3-methoxyphenyl)sulfonyl]-N-[(3-methylpyridin-2-yl)methyl]-1,2,2′,3′,5′,6′-hexahydrospiro[indole-3,4′-thiopyran]-5-carboxamide 1′,1′-dioxide]", "IC50": 253}
{"smiles": "COc1cccc(S(=O)(=O)N2c3ccc(C(=O)NCc4ncccc4C)cc3C3(CCS(=O)(=O)CC3)C2C2CC2)c1", "note": "(single isomer, unassigned) [Example 45.2, 2-cyclopropyl-1-[(3-methoxyphenyl)sulfonyl]-N-[(3-methylpyridin-2-yl)methyl]-1,2,2′,3′,5′,6′-hexahydrospiro[indole-3,4′-thiopyran]-5-carboxamide 1′,1′-dioxide]", "IC50": 4460}
{"smiles": "COc1cccc(S(=O)(=O)N2c3ccc(C(=O)NCc4ccc(F)cc4Cl)cc3C3(CCS(=O)(=O)CC3)C2C2CC2)c1", "note": "(single isomer, unassigned) [Example 46.1, N-(2-chloro-4-fluorobenzyl)-2-cyclopropyl-1-[(3-methoxyphenyl)sulfonyl]-1,2,2′,3′,5′,6′-hexahydrospiro[indole-3,4′-thiopyran]-5-carboxamide 1′,1′-dioxide]", "IC50": 50}
{"smiles": "COc1cccc(S(=O)(=O)N2c3ccc(C(=O)NCc4ccc(F)cc4Cl)cc3C3(CCS(=O)(=O)CC3)C2C2CC2)c1", "note": "(single isomer, unassigned) [Example 46.2, N-(2-chloro-4-fluorobenzyl)-2-cyclopropyl-1-[(3-methoxyphenyl)sulfonyl]-1,2,2′,3′,5′,6′-hexahydrospiro[indole-3,4′-thiopyran]-5-carboxamide 1′,1′-dioxide]", "IC50": 732}
{"smiles": "COc1cccc(S(=O)(=O)N2c3ccc(C(=O)NCc4ccccc4F)cc3C3(CCS(=O)(=O)CC3)C2C2CC2)c1", "note": "(single isomer, unassigned) [Example 47.1, 2-cyclopropyl-N-(2-fluorobenzyl)-1-[(3-methoxyphenyl)sulfonyl]-1,2,2′,3′,5′,6′-hexahydrospiro[indole-3,4′-thiopyran]-5-carboxamide 1′,1′-dioxide]", "IC50": 73}
{"smiles": "COc1cccc(S(=O)(=O)N2c3ccc(C(=O)NCc4ccccc4F)cc3C3(CCS(=O)(=O)CC3)C2C2CC2)c1", "note": "(single isomer, unassigned) [Example 47.2, 2-cyclopropyl-N-(2-fluorobenzyl)-1-[(3-methoxyphenyl)sulfonyl]-1,2,2′,3′,5′,6′-hexahydrospiro[indole-3,4′-thiopyran]-5-carboxamide 1′,1′-dioxide]", "IC50": 8870}
{"smiles": "O=C(O)c1cccc(NC(=O)c2ccc3c(c2)C2(CCS(=O)(=O)CC2)C(C2CC2)N3S(=O)(=O)c2ccc(F)cc2)c1", "note": "(single isomer, unassigned) [Example 49.1, 3-[({2-cyclopropyl-1-[(4-fluorophenyl)sulfonyl]-1′,1′-dioxido-1,2,2′,3′,5′,6′-hexahydrospiro[indole-3,4′-thiopyran]-5-yl}carbonyl)amino]benzoic acid]", "IC50": 40}
{"smiles": "O=C(O)c1cccc(NC(=O)c2ccc3c(c2)C2(CCS(=O)(=O)CC2)C(C2CC2)N3S(=O)(=O)c2ccc(F)cc2)c1", "note": "(single isomer, unassigned) [Example 49.2, 3-[({2-cyclopropyl-1-[(4-fluorophenyl)sulfonyl]-1′,1′-dioxido-1,2,2′,3′,5′,6′-hexahydrospiro[indole-3,4′-thiopyran]-5-yl}carbonyl)amino]benzoic acid]", "IC50": 109}
{"smiles": "NC(=O)c1cccc(NC(=O)c2ccc3c(c2)C2(CCS(=O)(=O)CC2)C(C2CC2)N3S(=O)(=O)c2ccc(F)cc2)c1", "note": "(single isomer, unassigned) [Example 51.1, N-(3-carbamoylphenyl)-2-cyclopropyl-1-[(4-fluorophenyl)sulfonyl]-1,2,2′,3′,5′,6′-hexahydrospiro[indole-3,4′-thiopyran]-5-carboxamide 1′,1′-dioxide]", "IC50": 80}
{"smiles": "NC(=O)c1cccc(NC(=O)c2ccc3c(c2)C2(CCS(=O)(=O)CC2)C(C2CC2)N3S(=O)(=O)c2ccc(F)cc2)c1", "note": "(single isomer, unassigned) [Example 51.2, N-(3-carbamoylphenyl)-2-cyclopropyl-1-[(4-fluorophenyl)sulfonyl]-1,2,2′,3′,5′,6′-hexahydrospiro[indole-3,4′-thiopyran]-5-carboxamide 1′,1′-dioxide]", "IC50": 1180}
{"smiles": "COC(=O)c1cccc(S(=O)(=O)N2c3ccc(C(=O)NCc4ccccc4Cl)cc3C3(CCS(=O)(=O)CC3)C2C2CC2)c1", "note": "(single isomer, unassigned) [Example 60.1, methyl 3-({5-[(2-chlorobenzyl)carbamoyl]-2-cyclopropyl-1′,1′-dioxido-2′,3′,5′,6′-tetrahydrospiro[indole-3,4′-thiopyran]-1(2H)-yl}sulfonyl)benzoate]", "IC50": 55}
{"smiles": "COC(=O)c1cccc(S(=O)(=O)N2c3ccc(C(=O)NCc4ccccc4Cl)cc3C3(CCS(=O)(=O)CC3)C2C2CC2)c1", "note": "(single isomer, unassigned) [Example 60.2, methyl 3-({5-[(2-chlorobenzyl)carbamoyl]-2-cyclopropyl-1′,1′-dioxido-2′,3′,5′,6′-tetrahydrospiro[indole-3,4′-thiopyran]-1(2H)-yl}sulfonyl)benzoate]", "IC50": 1140}
{"smiles": "O=C(O)c1cccc(S(=O)(=O)N2c3ccc(C(=O)NCc4ccccc4Cl)cc3C3(CCS(=O)(=O)CC3)C2C2CC2)c1", "note": "(single isomer, unassigned) [Example 61.1, 3-({5-[(2-chlorobenzyl)carbamoyl]-2-cyclopropyl-1′,1′-dioxido-2′,3′,5′,6′-tetrahydrospiro[indole-3,4′-thiopyran]-1(2H)-yl}sulfonyl)benzoic acid]", "IC50": 84}
{"smiles": "O=C(O)c1cccc(S(=O)(=O)N2c3ccc(C(=O)NCc4ccccc4Cl)cc3C3(CCS(=O)(=O)CC3)C2C2CC2)c1", "note": "(single isomer, unassigned) [Example 61.2, 3-({5-[(2-chlorobenzyl)carbamoyl]-2-cyclopropyl-1′,1′-dioxido-2′,3′,5′,6′-tetrahydrospiro[indole-3,4′-thiopyran]-1(2H)-yl}sulfonyl)benzoic acid]", "IC50": 2010}
{"smiles": "COc1cccc(S(=O)(=O)N2c3ccc(C(=O)Nc4cccc(S(=O)(=O)N=C(N(C)C)N(C)C)c4)cc3C3(CCS(=O)(=O)CC3)C2C2CC2)c1", "note": "(single isomer, unassigned) [Example 62.1, N-(3-{[bis(dimethylamino)methylidene]sulfamoyl}phenyl)-2-cyclopropyl-1-[(3-methoxyphenyl)sulfonyl]-1,2,2′,3′,5′,6′-hexahydrospiro[indole-3,4′-thiopyran]-5-carboxamide 1′,1′-dioxide]", "IC50": 6430}
{"smiles": "COc1cccc(S(=O)(=O)N2c3ccc(C(=O)Nc4cccc(S(=O)(=O)N=C(N(C)C)N(C)C)c4)cc3C3(CCS(=O)(=O)CC3)C2C2CC2)c1", "note": "(single isomer, unassigned) [Example 62.2, N-(3-{[bis(dimethylamino)methylidene]sulfamoyl}phenyl)-2-cyclopropyl-1-[(3-methoxyphenyl)sulfonyl]-1,2,2′,3′,5′,6′-hexahydrospiro[indole-3,4′-thiopyran]-5-carboxamide 1′,1′-dioxide]", "IC50": 4.8}
{"smiles": "O=C(Nc1ccon1)c1ccc2c(c1)C1(CCS(=O)(=O)CC1)C(C1CC1)N2S(=O)(=O)c1ccc(F)cc1", "note": "(single isomer, unassigned) [Example 63.1, 2-cyclopropyl-1-[(4-fluorophenyl)sulfonyl]-N-(1,2-oxazol-3-yl)-1,2,2′,3′,5′,6′-hexahydrospiro[indole-3,4′-thiopyran]-5-carboxamide 1′,1′-dioxide]", "IC50": 88}
{"smiles": "O=C(Nc1ccon1)c1ccc2c(c1)C1(CCS(=O)(=O)CC1)C(C1CC1)N2S(=O)(=O)c1ccc(F)cc1", "note": "(single isomer, unassigned) [Example 63.2, 2-cyclopropyl-1-[(4-fluorophenyl)sulfonyl]-N-(1,2-oxazol-3-yl)-1,2,2′,3′,5′,6′-hexahydrospiro[indole-3,4′-thiopyran]-5-carboxamide 1′,1′-dioxide]", "IC50": 3430}
{"smiles": "CN(C)C(=NS(=O)(=O)c1cccc(NC(=O)c2ccc3c(c2)C2(CCS(=O)(=O)CC2)C(C2CC2)N3S(=O)(=O)c2ccc(F)cc2)c1)N(C)C", "note": "(single isomer, unassigned) [Example 64.1, N-(3-{[bis(dimethylamino)methylidene]sulfamoyl}phenyl)-2-cyclopropyl-1-[(4-fluorophenyl)sulfonyl]-1,2,2′,3′,5′,6′-hexahydrospiro[indole-3,4′-thiopyran]-5-carboxamide 1′,1′-dioxide]", "IC50": 4.6}
{"smiles": "CN(C)C(=NS(=O)(=O)c1cccc(NC(=O)c2ccc3c(c2)C2(CCS(=O)(=O)CC2)C(C2CC2)N3S(=O)(=O)c2ccc(F)cc2)c1)N(C)C", "note": "(single isomer, unassigned) [Example 64.2, N-(3-{[bis(dimethylamino)methylidene]sulfamoyl}phenyl)-2-cyclopropyl-1-[(4-fluorophenyl)sulfonyl]-1,2,2′,3′,5′,6′-hexahydrospiro[indole-3,4′-thiopyran]-5-carboxamide 1′,1′-dioxide]", "IC50": 66}
